# Data: US10077277B2, “Bicyclic heteroarylaminoalkyl phenyl derivatives as PI3K inhibitors” (Incyte Corporation, priority 2014, dated 2018)
# Structures can show the parent of a compound that is named as a salt. Where two headings read alike, the source gives them in different places.
# What was measured:
# [1] = target: PI3Kδ (p110δ/p85α) (Homo sapiens (Human), UniProt O00329); experiment: PI3Kδ scintillation proximity assay (Example A3); format: biochemical; conditions: Assay A3, 20 μM ATP
# Description: Example A3: PI3Kδ Scintillation Proximity Assay
# [γ-^33P]ATP (10 mCi/mL) was purchased from PerkinElmer (Waltham, Mass.). Lipid kinase substrate, D-myo-Phosphatidylinositol 4,5-bisphosphate (PtdIns(4,5)P2)D (+)-sn-1,2-di-O-octanoylglyceryl, 3-O-phospho linked (PIP2), CAS 204858-53-7, was purchased from Echelon Biosciences (Salt Lake City, Utah). PI3Kδ (p110δ/p85α) was purchased from Millipore (Bedford, Mass.). ATP, MgCl2, DTT, EDTA, MOPS and CHAPS were purchased from SigmaAldrich (St. Louis, Mo.). Wheat Germ Agglutinin (WGA) YSi SPA Scintillation Beads was purchased from GE healthcare life sciences (Piscataway, N.J.).
# The kinase reaction was conducted in polystyrene 384-well matrix white plate from Thermo Fisher Scientific in a final volume of 25 μL. Inhibitors were first diluted serially in DMSO and added to the plate wells before the addition of other reaction components. The final concentration of DMSO in the assay was 0.5%. The PI3K assays were carried out at room temperature in 20 mM MOPS, pH 6.7, 10 mM MgCl2, 5 mM DTT and CHAPS 0.03%. Reactions were initiated by the addition of ATP, the final reaction mixture consisted of 20 μM PIP2, 20 μM ATP, 0.2 μCi [γ-^33P] ATP, 4 nM PI3Kδ. Reactions were incubated for 210 min and terminated by the addition of 40 μL SPA beads suspended in quench buffer: 150 mM potassium phosphate pH 8.0, 20% glycerol. 25 mM EDTA, 400 μM ATP. The final concentration of SPA beads was 1.0 mg/mL. After the plate sealing, plates were shaken overnight at room temperature and centrifuged at 1800 rpm for 10 minutes, the radioactivity of the product was determined by scintillation counting on Topcount (PerkinElmer). IC50 determination was performed by fitting the curve of percent control activity versus the log of the inhibitor concentration using the GraphPad Prism 3.0 software. IC50 data for the Examples is presented in Table 2 as determined by Assay A3.
# [2] = tested on: SUDHL-6 cells; experiment: SUDHL-6 cell proliferation assay (Example B3); format: cell-based; conditions: 3 days, Cell Titer-GLO ATP quantitation, read-out: SUDHL6 IC50
# Description: Example B3: SUDHL-6 Cell Proliferation Assay
# SUDHL-6 cell line (diffuse large B cell lymphoma) was purchased from ATCC (Manassas, Va.) and maintained in the culture medium recommended (RPMI and 10% FBS). To measure the anti-proliferation activity of the compounds through ATP quantitation, the SUDHL-6 cells was plated with the culture medium (5000 cells/well/per 200 μl) into 96-well polystyrene clear black tissue culture plate (Greiner-bio-one through VWR, NJ) in the presence or absence of a concentration range of test compounds. After 3 days, Cell Titer-GLO Luminescent (Promega, Madison, Wis.) cell culture agent was added to each well for 10 minutes at room temperature to stabilize the luminescent signal. This determines the number of viable cells in culture based on quantitation of the ATP present, which signals the presence of metabolically active cells. Luminescence was measured with the TopCount 384 (Packard Bioscience through Perkin Elmer, Boston, Mass.). IC50 data for the Examples is presented in Table 3 determined by the assay of Example B3.
# [3] = target: human JAK2 (Homo sapiens (Human), UniProt O60674); experiment: In vitro JAK kinase assay (Example J), JAK2; format: biochemical; conditions: ratio of IC50s, Assay J at 1 mM ATP
# [4] = target: human JAK1 (Homo sapiens, UniProt P23458); experiment: In vitro JAK kinase assay (Example J), JAK1; format: biochemical; conditions: Assay J at 1 mM ATP
# human JAK2, sequence (O60674 828-1132): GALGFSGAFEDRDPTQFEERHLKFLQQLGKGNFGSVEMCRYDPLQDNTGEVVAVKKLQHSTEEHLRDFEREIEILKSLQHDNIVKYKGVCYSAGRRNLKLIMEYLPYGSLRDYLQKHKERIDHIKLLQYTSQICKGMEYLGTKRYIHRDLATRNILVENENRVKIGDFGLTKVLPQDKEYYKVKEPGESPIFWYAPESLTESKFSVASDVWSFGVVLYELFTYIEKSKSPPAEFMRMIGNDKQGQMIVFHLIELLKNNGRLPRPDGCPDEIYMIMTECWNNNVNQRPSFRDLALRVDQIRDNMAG
# PI3Kδ (p110δ/p85α), sequence (O00329 whole entry): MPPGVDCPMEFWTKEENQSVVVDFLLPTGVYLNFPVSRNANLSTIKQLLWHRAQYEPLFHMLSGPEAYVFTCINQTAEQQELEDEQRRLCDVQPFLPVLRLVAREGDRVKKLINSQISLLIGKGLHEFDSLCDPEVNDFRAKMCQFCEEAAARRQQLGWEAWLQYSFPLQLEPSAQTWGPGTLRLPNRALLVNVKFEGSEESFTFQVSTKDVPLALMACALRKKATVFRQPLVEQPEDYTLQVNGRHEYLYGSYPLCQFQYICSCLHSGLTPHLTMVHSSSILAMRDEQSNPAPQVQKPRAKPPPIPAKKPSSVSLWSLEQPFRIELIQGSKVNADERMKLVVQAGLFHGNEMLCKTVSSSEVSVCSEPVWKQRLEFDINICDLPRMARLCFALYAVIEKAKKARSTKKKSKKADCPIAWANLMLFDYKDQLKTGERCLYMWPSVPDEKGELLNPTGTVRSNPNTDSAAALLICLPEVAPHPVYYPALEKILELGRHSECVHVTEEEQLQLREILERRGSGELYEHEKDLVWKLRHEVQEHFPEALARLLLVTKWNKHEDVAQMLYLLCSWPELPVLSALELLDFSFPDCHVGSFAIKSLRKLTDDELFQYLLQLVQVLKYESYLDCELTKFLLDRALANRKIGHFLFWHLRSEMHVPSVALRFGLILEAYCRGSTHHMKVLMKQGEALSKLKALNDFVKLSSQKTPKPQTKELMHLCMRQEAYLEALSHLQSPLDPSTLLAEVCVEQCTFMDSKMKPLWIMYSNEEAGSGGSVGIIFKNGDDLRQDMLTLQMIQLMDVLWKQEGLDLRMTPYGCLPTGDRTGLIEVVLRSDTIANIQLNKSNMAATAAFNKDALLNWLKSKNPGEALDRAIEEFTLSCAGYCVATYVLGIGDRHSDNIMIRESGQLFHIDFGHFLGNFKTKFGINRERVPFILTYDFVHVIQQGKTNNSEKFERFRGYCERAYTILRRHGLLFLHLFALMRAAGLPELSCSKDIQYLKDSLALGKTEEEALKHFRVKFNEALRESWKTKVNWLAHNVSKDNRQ
# PI3Kδ (p110δ/p85α), sequence (P27986 whole entry partner): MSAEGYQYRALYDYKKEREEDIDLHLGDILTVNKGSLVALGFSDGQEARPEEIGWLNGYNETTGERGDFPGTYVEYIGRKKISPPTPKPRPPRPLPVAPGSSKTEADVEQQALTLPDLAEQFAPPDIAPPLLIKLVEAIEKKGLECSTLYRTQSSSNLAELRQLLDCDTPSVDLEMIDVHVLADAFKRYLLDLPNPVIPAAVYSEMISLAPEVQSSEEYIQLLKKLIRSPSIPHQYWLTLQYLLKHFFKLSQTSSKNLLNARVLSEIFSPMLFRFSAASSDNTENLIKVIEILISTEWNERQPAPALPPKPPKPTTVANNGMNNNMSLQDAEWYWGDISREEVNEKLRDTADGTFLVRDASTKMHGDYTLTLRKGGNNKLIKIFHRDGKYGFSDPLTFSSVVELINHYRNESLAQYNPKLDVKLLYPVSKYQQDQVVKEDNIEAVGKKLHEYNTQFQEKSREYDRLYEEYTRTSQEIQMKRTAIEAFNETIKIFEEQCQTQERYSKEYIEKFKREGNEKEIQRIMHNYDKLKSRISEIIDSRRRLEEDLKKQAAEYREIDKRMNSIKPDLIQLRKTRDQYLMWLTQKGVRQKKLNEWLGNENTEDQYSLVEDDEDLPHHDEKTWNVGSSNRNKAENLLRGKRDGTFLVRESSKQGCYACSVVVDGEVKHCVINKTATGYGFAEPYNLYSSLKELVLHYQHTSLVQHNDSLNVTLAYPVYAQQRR
SMILES,IC50 [1],JAK2/JAK1 [3],IC50 [4],also measured
"CCOc1c(C(C)Nc2ncnc3scnc23)cc(Cl)c(F)c1C1CNC(=O)C1 (single isomer, unassigned) [Example 1B, 4-{3-chloro-6-ethoxy-2-fluoro-5-[1-([1,3]thiazolo[5,4-d]pyrimidin-7-ylamino)ethyl]phenyl}pyrrolidin-2-one]",100 to 400 nM,–,–,–
"CCOc1c([C@@H](C)Nc2ncnc3cccnc23)cc(Cl)c(F)c1[C@@H]1CNC(=O)C1 (single isomer, unassigned) [Example 2D, 4-{3-chloro-6-ethoxy-2-fluoro-5-[1-(pyrido[3,2-d]pyrimidin-4-ylamino)ethyl]phenyl}pyrrolidin-2-one]",100 to 400 nM,–,–,–
"CCOc1c([C@@H](C)Nc2ncnc3cccnc23)cc(Cl)c(F)c1[C@@H]1CNC(=O)C1 [Example 2A, 4-{3-chloro-6-ethoxy-2-fluoro-5-[1-(pyrido[3,2-d]pyrimidin-4-ylamino)ethyl]phenyl}pyrrolidin-2-one]",≤ 100 nM,–,–,"IC50 ([2]; Homo sapiens, SU-DHL-6, 72 h): ≤ 500 nM"
"COc1c([C@H](C)Nc2ncnc3cccnc23)cc(Cl)c(C)c1-c1ccc(C(=O)N(C)C)nc1 [Example 3, 5-{3-Chloro-6-methoxy-2-methyl-5-[(1S)-1-(pyrido[3,2-d]pyrimidin-4-ylamino)ethyl]phenyl}-N,N-dimethylpyridine-2-carboxamide bis(trifluoroacetate)]",≤ 100 nM,–,–,"IC50 ([2]; Homo sapiens, SU-DHL-6, 72 h): ≤ 500 nM"
"CCOc1c(C(C)Nc2ncnc3cccnc23)cc(Cl)c(F)c1C1CNC(=O)C1 (centres unmarked) [Example 2, 4-{3-Chloro-6-ethoxy-2-fluoro-5-[1-(pyrido[3,2-d]pyrimidin-4-ylamino)ethyl]phenyl}pyrrolidin-2-one]",≤ 100 nM,–,–,–
"CCOc1c([C@@H](C)Nc2ncnc3cccnc23)cc(Cl)c(F)c1[C@@H]1CNC(=O)C1 (single isomer, unassigned) [Example 2B, 4-{3-chloro-6-ethoxy-2-fluoro-5-[1-(pyrido[3,2-d]pyrimidin-4-ylamino)ethyl]phenyl}pyrrolidin-2-one]",100 to 400 nM,–,–,–
"CCOc1c(C(C)Nc2ncnc3scnc23)cc(Cl)c(F)c1C1CNC(=O)C1 (centres unmarked) [Example 1, 4-{3-Chloro-6-ethoxy-2-fluoro-5-[1-([1,3]thiazolo[5,4-d]pyrimidin-7-ylamino)ethyl]phenyl}pyrrolidin-2-one trifluoroacetate]",≤ 100 nM,>10,–,–
"CCOc1c(C(C)Nc2ncnc3scnc23)cc(Cl)c(F)c1C1CNC(=O)C1 (single isomer, unassigned) [Example 1A, 4-{3-chloro-6-ethoxy-2-fluoro-5-[1-([1,3]thiazolo[5,4-d]pyrimidin-7-ylamino)ethyl]phenyl}pyrrolidin-2-one]",≤ 100 nM,–,–,"IC50 ([2]; Homo sapiens, SU-DHL-6, 72 h): ≤ 500 nM"
"CCOc1c(C(C)Nc2ncnc3scnc23)cc(Cl)c(F)c1C1CNC(=O)C1 (single isomer, unassigned) [Example 1C, 4-{3-chloro-6-ethoxy-2-fluoro-5-[1-([1,3]thiazolo[5,4-d]pyrimidin-7-ylamino)ethyl]phenyl}pyrrolidin-2-one]",≤ 100 nM,–,–,IC50 [2]: ≤ 500 nM
C[C@H](NC(=O)c1cc(F)c(N2CC(CC#N)(n3cc(-c4ncnc5[nH]ccc45)cn3)C2)cc1F)C(F)(F)F [Example 16],–,>10,< 10 nM,–
"N#CCC1(n2cc(-c3ncnc4[nH]ccc34)cn2)CN([C@H]2CC[C@@H](Oc3cc(CN4CC[C@H](O)C4)cc(C(F)(F)F)n3)CC2)C1 [Example 22, {1-(cis-4-{[4-{[(3S)-3-hydroxypyrrolidin-1-yl]methyl}-6-(trifluoromethyl)pyridin-2-yl]oxy}cyclohexyl)-3-[4-(7H-pyrrolo[2,3-d]pyrimidin-4-yl)-1H-pyrazol-1-yl]azetidin-3-yl}acetonitrile]",–,>10,< 10 nM,–
C[C@@H](O)CNCc1cc(OC2CCN([C@H]3C[C@](CC#N)(n4cc(-c5ncnc6[nH]ccc56)cn4)C3)CC2)nc(C(F)(F)F)c1 [Example 24],–,>10,< 10 nM,–
"CCOc1c(C(C)Nc2ncnc3scnc23)cc(Cl)c(F)c1C1CNC(=O)C1 (single isomer, unassigned) [Example 1D, 4-{3-chloro-6-ethoxy-2-fluoro-5-[1-([1,3]thiazolo[5,4-d]pyrimidin-7-ylamino)ethyl]phenyl}pyrrolidin-2-one]",100 to 400 nM,–,–,–
N#CC[C@]1(n2cc(-c3ncnc4[nH]ccc34)cn2)C[C@H](N2CCC(Oc3cc(CCO)cc(C(F)(F)F)n3)CC2)C1 [Example 26],–,>10,< 10 nM,–
"CCNC(=O)c1c(C)c(Cl)cc(C(C)Nc2ncnc3cccnc23)c1-c1cc(F)cc(F)c1 (centres unmarked) [Example 4, 4-Chloro-N-ethyl-3′,5′-difluoro-3-methyl-6-[1-(pyrido[3,2-d]pyrimidin-4-ylamino)ethyl]biphenyl-2-carboxamide]",≤ 100 nM,–,–,"IC50 ([2]; Homo sapiens, SU-DHL-6, 72 h): ≤ 500 nM"
"N#CCC1(n2cc(-c3ncnc4[nH]ccc34)cn2)CN(C2CCN(C(=O)c3ccnc(C(F)(F)F)n3)CC2)C1 [Example 9, [3-[4-(7H-pyrrolo[2,3-d]pyrimidin-4-yl)-1H-pyrazol-1-yl]-1-(1-{[2-(trifluoromethyl)pyrimidin-4-yl]carbonyl}piperidin-4-yl)azetidin-3-yl]acetonitrile]",–,>10,< 10 nM,–
N#CCC(CN1CCN(C(=O)c2ccc(C#N)cc2F)CC1)n1cc(-c2ncnc3[nH]ccc23)cn1 (centres unmarked) [Example 5],–,>10,< 10 nM,–
